Structures can show the parent of a compound that is named as a salt. Where two headings read alike, the source gives them in different places.
Tests used:
LX-2 cells [1] = assay: MTT assay of cell viability; assay type: cell-based, human
Description: (§1) LX 2 cell lines were bought from American Type Culture Collection (Rockville, MD, USA). Upon defrosting, the cells were seeded in 6-well plates and maintained in a medium DMEM low glucose supplemented with 10% FBS and a 1% Penicillin and Streptomycin solution. The obtained cell cultures were left at 37 °C in an incubator with 5% CO2, and the culture medium was changed after 3 or 4 days. Sub-confluent cells were treated over a period of 24 h using various concentrations (1, 5, 10 µM) of compounds 1a–o, 2a–c, and dimethyl fumarate (DMF) previously dissolved in DMSO. Control groups were treated with only DMSO.
An MTT assay was performed to monitor cell viability, measuring the conversion of tetrazolium salt to yield colored formazan, the amount of which was proportional to the number of living cells. Regarding this assay, LX2 cells were seeded at a concentration of […] cells per well, in a 96-multiwell flat-bottomed 200 μL microplate. The optical density of each well was measured with a microplate spectrophotometer reader (Synergy HT, BioTek) at λ = 570 nm.

LX-2 cells [2] = assay: ROS assay with DCFH-DA, palmitic acid (PA)-mediated ROS production; assay type: cell-based, human; settings: 24 h; for ROS production mediated by palmitic acid (PA), co-treatment: 5 μM compound + PA 300 μM, p < 0.05 vs. PA
Description: Determination of the reactive oxygen species (ROS) was performed using a fluorescent probe 2′,7′-dichlorofluorescein diacetate (DCFH-DA). The fluorescence (corresponding to the oxidized radical species 2′,7′-dichlorofluorescein, DCF) was monitored spectrofluorometrically (excitation, λ = 488 nm; emission, λ = 525 nm). Results were reported as fluorescence intensity. Concerning the experiments, the cells were seeded in 96-well plates at a density of 1 × 10^4 cells per well. Then, the cells were treated for 24 h with DMEM containing a no cytotoxic concentration of palmitic acid (PA) 300 μM in the presence or absence of compound 1b, 1l, 1m and dimethyl fumarate (DMF) (5 μM).

HO-1 = HO-1 expression by ELISA in LX-2 cell lysates; assay type: cell-based, human; settings: for fold induction at 1 µM / fold induction at 5 µM / fold induction at 10 µM: Homo sapiens, LX-2, 24 h; for fold induction at 1 µM / fold induction at 5 µM / fold induction at 10 µM / Fold Induction (ELISA): 24 h, LX-2 cells lysate, vs control group, mean ± SD of triplicate; for potency as HO-1 inducers relative to DMF: LX-2 cells, more active than DMF
Description: as §1
The commercially available ELISA kit (ADI-EKS-800, Enzo Life Sci) was used to measure heme oxygenase […] (HO-1) protein concentration in LX2 cellular lysates. The test was performed in agreement with the protocol reported by the manufacturer. Absorbance at λ = 450 nm was measured and the concentration of HO-1 was calculated from a standard curve previously created using purified HO-1 protein. Results were expressed as folds of change compared to the control group. Individual measurement was performed in triplicate and data were reported as averages.

| melting point [°C] | Compound | IC50 (LX-2 cells [1]; Homo sapiens) [µM] | fold induction at 1 µM (HO-1; 1 μM) | fold induction at 5 µM (HO-1; 5 μM) | fold induction at 10 µM (HO-1; 10 μM) | other results |
| --- | --- | --- | --- | --- | --- | --- |
| 160 to 161 | Cc1ccc(OC(=O)/C=C/C(=O)Oc2ccc(C)cc2)cc1 [Compound 1f] | > 50 | 1.82 ± 0.09 | 3.94 ± 0.13 | 3.76 ± 0.15 | – |
| 266 to 267 | O=C(/C=C/C(=O)Oc1ccc(I)cc1)Oc1ccc(I)cc1 [Compound 1c, (2E)-2-Butenedioic acid, 1,4-bis(4-iodophenyl) ester] | 20.8 ± 1.5 | 6.02 ± 0.13 | 7.7 ± 0.19 | 8.13 ± 0.23 | – |
| 178 to 179 | O=C(/C=C/C(=O)Oc1ccc(Cl)cc1)Oc1ccc(Cl)cc1 [Compound 1b, (2E)-2-Butenedioic acid, 1,4-bis(4-chlorophenyl) ester] | > 50 | 8.81 ± 0.2 | 8.19 ± 0.21 | 11.7 ± 0.41 | ROS production mediated by palmitic acid (PA), co-treatment (LX-2 cells [2]): significantly reversed the effect mediated by PA; potency as HO-1 inducers relative to DMF (HO-1): 2–3 fold |
| 50 to 51 | COC(=O)/C=C/C(=O)OCc1ccccc1 [Compound 2b, (2E)-2-Butenedioic acid, methyl phenylmethyl ester] | > 50 | – | – | 0.28 | – |
| 122 to 123 | O=C(/C=C/C(=O)Oc1ccc(C(F)(F)F)cc1)Oc1ccc(C(F)(F)F)cc1 [Compound 1d, (2E)-2-Butenedioic acid, 1,4-bis(4-trifluoromethyphenyl) ester] | > 50 | – | 1.4 ± 0.03 | 0.68 ± 0.02 | – |
| 77 to 79 | O=C(/C=C/C(=O)OCCc1ccccc1)OCCc1ccccc1 [Compound 1j, (2E)-2-Butenedioic acid, 1,4-bis(phenylethyl) ester] | > 50 | 2.29 ± 0.1 | 5.91 ± 0.17 | 8.47 ± 0.33 | – |
| 180 to 181 | COc1ccc(OC(=O)/C=C/C(=O)Oc2ccc(OC)cc2)cc1 [Compound 1g, (2E)-2-Butenedioic acid, 1,4-bis(4-methoxyphenyl) ester] | 22.3 ± 1.8 | 0.3 ± 0.01 | 0.76 ± 0.02 | 0.9 ± 0.06 | – |
| 44 to 45 | COC(=O)/C=C/C(=O)OCCc1ccccc1 [Compound 2c, (2E)-2-Butenedioic acid, methyl phenylethyl ester] | > 50 | – | – | – | – |
| 54 to 55 | COC(=O)/C=C/C(=O)Oc1ccccc1 [Compound 2a, (2E)-2-Butenedioic Acid, Methyl Phenyl Ester] | > 50 | – | – | – | – |

Continued, compound first:

| Compound | melting point [°C] | IC50 (LX-2 cells [1]; Homo sapiens) [µM] | fold induction at 1 µM (HO-1; 1 μM) | fold induction at 5 µM (HO-1; 5 μM) | fold induction at 10 µM (HO-1; 10 μM) | other results |
| --- | --- | --- | --- | --- | --- | --- |
| COC(=O)/C=C/C(=O)OC [DMF, dimethyl fumarate] | – | > 50 | 2.78 ± 0.09 | 7.63 ± 0.31 | 8.3 ± 0.23 | ROS production mediated by palmitic acid (PA), co-treatment (LX-2 cells [2]): significantly reversed the effect mediated by PA |
| CCCCCCCCCCCCCCCC(=O)O [PA, palmitic acid, reference compound] | – | – | – | – | – | ROS production, PA alone (LX-2 cells [2]; PA 300 μM, p < 0.05 vs. control): increased ROS production |
| O=C(/C=C/C(=O)OCCCc1ccccc1)OCCCc1ccccc1 [Compound 1k, (2E)-2-Butenedioic acid, 1,4-bis(phenylpropyl) ester] | – | > 50 | 2.26 ± 0.09 | 5.98 ± 0.16 | 9.55 ± 0.27 | – |
| O=C(/C=C/C(=O)NCc1ccccc1)NCc1ccccc1 [Compound 1m, (E)-N, N’-Diphenylmethyl-2-butenediamide] | – | 18.6 ± 1.4 | > 7 | > 14 | 13.8 ± 0.35 | ROS production mediated by palmitic acid (PA), co-treatment (LX-2 cells [2]): significantly reversed the effect mediated by PA; Fold Induction (ELISA) (HO-1; 5 μM, 5 µM): 14.15 ± 0.34 fold; potency as HO-1 inducers relative to DMF (HO-1): 2–3 fold |
| O=C(/C=C/C(=O)OCc1ccccc1)OCc1ccccc1 [Compound 1i, (2E)-2-Butenedioic acid, 1,4-bis(phenylmethyl) ester] | 59 to 61 | 17.7 ± 1.3 | 3.4 ± 0.18 | 5.86 ± 0.19 | 7.34 ± 0.28 | – |
| (E)-N, N’-Diphenylpropyl-2-butenediamide [Compound 1o] | – | – | – | – | – | IC50 (LX-2 cells [1]): > 50 µM; Fold Induction (ELISA) (HO-1; 1 μM): 4.85 ± 0.13 fold; Fold Induction (ELISA) (HO-1; 5 μM): 6.93 ± 0.23 fold; Fold Induction (ELISA) (HO-1; 10 μM): 6.30 ± 0.21 fold |
| O=C(/C=C/C(=O)Oc1ccccc1)Oc1ccccc1 [Compound 1a, (2E)-2-Butenedioic acid, 1,4-diphenyl ester] | 164 to 165 | > 50 | 6.65 ± 0.15 | 7.93 ± 0.18 | 8.16 ± 0.32 | – |
| O=C(/C=C/C(=O)Nc1ccccc1)Nc1ccccc1 [Compound 1l, (E)-N, N’-Diphenyl-2-butenediamide] | 332 to 333 | > 50 | 6.9 ± 0.14 | 9.74 ± 0.25 | 10.2 ± 0.29 | ROS production mediated by palmitic acid (PA), co-treatment (LX-2 cells [2]): significantly reversed the effect mediated by PA; potency as HO-1 inducers relative to DMF (HO-1): 2–3 fold |
| N#Cc1ccc(OC(=O)/C=C/C(=O)Oc2ccc(C#N)cc2)cc1 [Compound 1e, (2E)-2-Butenedioic acid, 1,4-bis(4-cyanophenyl) ester] | 230 to 232 | > 50 | 3.68 ± 0.21 | 5.22 ± 0.11 | 6.5 ± 0.17 | – |
| O=C(/C=C/C(=O)Oc1ccccc1C(=O)O)Oc1ccccc1C(=O)O [Compound 1h, (2E)-2-Butenedioic acid, 1,4-bis(2-carboxyphenyl) ester] | – | > 50 | 6.37 ± 0.22 | 7.45 ± 0.21 | 9.95 ± 0.19 | – |
| (E)-N, N’-Diphenylethyl-2-butenediamide [Compound 1n] | – | – | – | – | – | IC50 (LX-2 cells [1]): > 50 µM; Fold Induction (ELISA) (HO-1; 1 μM): 5.82 ± 0.12 fold; Fold Induction (ELISA) (HO-1; 5 μM): 7.52 ± 0.21 fold; Fold Induction (ELISA) (HO-1; 10 μM): 8.40 ± 0.38 fold |
